{"source": "patent US8946201B2", "about": "“Methods for inhibiting TGF-β” (Saint Louis University, priority 2007, dated 2015)", "test_system": "Mv1Lu cells", "experiment": "[Methyl-3H]thymidine incorporation (DNA synthesis), Mv1Lu cells", "assay_type": "cell-based, mink", "method": "(A, B, C, D, E, F) Cells were treated with 50 μg/ml cholesterol (A, B, C, D) and 50 μg/ml LDL (D) at 37° C. for 1 hr or with 1 μM fluvastatin or lovastatin (E) or several concentrations of fluvastatin (F) at 37° C. for 16 hr and then further incubated with increasing concentrations (as indicated) of TGF-β1 (A, B, C, E) or 50 pM TGF-β1 (D,F) for 2 hr. Northern blot analysis of PAI-1 and G3PDH was performed. A representative of a total of three analyses is shown (a). The relative intensities of the transcripts were quantified with a PhosphoImager. The ratio of the relative intensities of PAI-1 and G3PDH transcripts in cells treated without TGF-β1 and cholesterol, LDL or statins on the blot was taken as 1 fold or 100% of PAI-1 expression. The quantitative data from three independent analyses is shown (b). […] (G) Mv1Lu cells stably expressing a luciferase reporter gene driven by the PAI-1 promoter (MLECs-clone 32) were treated with increasing concentrations (as indicated) of cholesterol at 37 EC for 1 hr (a) or with 1 μM lovastatin at 37° C. for 16 hr (b) and then further incubated with 50 pM TGF-β for 7 hr. The luciferase activity in cells treated without cholesterol was taken as 100% (a). […] (H) Cells were incubated with 0.0625 and 0.125 pM TGF-β1 in the presence of increasing concentrations of cholesterol, as indicated. After 18 hr at 37° C., cell growth was determined by measurement of [^3H-methyl]thymidine incorporation into cellular DNA (a). The [^3H-methyl]thymidine incorporation in cells treated with vehicle only (T1); with TGF-β1 (T2); with cholesterol (T3); with cholesterol and TGF-β1 (T4) was measured. T1 was taken as 100%. The degree (%) of cholesterol-mediated reversal of TGF-β1 growth inhibition was estimated by the equation: % reversal=[1−(T3−T4/T1−T2)]×100 Cholesterol appeared to reverse TGF-β1 growth inhibition in a dose-dependent manner (b). The experiments were carried out in triplicate.\nThe growth of cholesterol-treated cells was determined by measurement of [methyl-^3H]thymidine incorporation into cellular DNA as described (30). Briefly, cells grown near confluence on 48-well clustered dishes were treated with several concentrations of cholesterol at 37° C. for 1 hr in serum-free DMEM. The final concentration of ethanol (the vehicle for cholesterol) in the medium was 0.2%. […] The [methyl-^3H]thymidine incorporation into cellular DNA was then determined by incubation of cells with [methyl-^3H]thymidine at 37° C. for 2 hr in DMEM containing 0.1% fetal calf serum. […]\nAnother prominent biological activity of TGF-β is growth inhibition of many different cell types. […] DNA synthesis was then determined by measurement of [^3H-methyl]thymidine incorporation into cellular DNA (FIG. 2Ha). […]"}
{"smiles": "CC(C)CCC[C@@H](C)[C@H]1CC[C@H]2[C@@H]3CC=C4C[C@@H](O)CC[C@]4(C)[C@H]3CC[C@]12C", "note": "[cholesterol]", "values": [{"measurement": "reversal of DNA synthesis inhibition induced by TGF-β1", "setting": "8 μg/ml, 0.0625 and 0.125 pM TGF-β1, 18 hr", "value": "almost completely reversed"}, {"measurement": "effect on DNA synthesis, alone", "setting": "6 and 8 μg/ml, without TGF-β1", "value": "inhibited"}]}
